Patent US12077503B2, “Substituted cyclic amides and their use as herbicides” (FMC CORPORATION, priority 2015, dated 2024)

Columns and labels:
[1] = tested on: pigweed (Amaranthus retroflexus); assay: Test A preemergence; type: in vivo; settings: Amaranthus retroflexus, pre-emergence, 240 h, 0 to 100 scale (0 no effect, 100 complete control), read-out: Plant response rating, Pigweed; for pest or weed control at 500 g/ha: 500 g ai/ha, preemergence; for pest or weed control at 125 g/ha: Preemergence, 125 g ai/ha
[2] = tested on: barnyardgrass (Echinochloa crus-galli); assay: Test A preemergence; type: in vivo; settings: Echinochloa crus-galli, pre-emergence, 240 h, 0 to 100 scale (0 no effect, 100 complete control), read-out: Plant response rating, Barnyardgrass; for pest or weed control at 500 g/ha: 500 g ai/ha, preemergence; for pest or weed control at 125 g/ha: Preemergence, 125 g ai/ha
Summary of the method: (§1)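 Treatment is preemergence as a directed soil spray after planting, or postemergence at the one- to two-leaf stage, with test chemical in a non-phytotoxic solvent mixture plus surfactant. Plants stay in the greenhouse about 10 d before visual injury scoring on a 0 to 100 scale versus untreated controls.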

[3] = tested on: ragweed (common ragweed, Ambrosia elatior); assay: Test A preemergence; type: in vivo; settings: Ambrosia artemisiifolia, pre-emergence, 240 h, 0 to 100 scale (0 no effect, 100 complete control), read-out: Plant response rating, Ragweed; for pest or weed control at 500 g/ha: 500 g ai/ha, preemergence; for pest or weed control at 125 g/ha: Preemergence, 125 g ai/ha
Summary of the method: as §1

Kochia (Kochia scoparia) = assay: Test A preemergence; type: in vivo; settings: Bassia scoparia, pre-emergence, 240 h, 0 to 100 scale (0 no effect, 100 complete control), read-out: Plant response rating, Kochia; for pest or weed control at 500 g/ha: 500 g ai/ha, preemergence; for pest or weed control at 125 g/ha: Preemergence, 125 g ai/ha
Summary of the method: as §1

[4] = tested on: ryegrass, Italian (Italian ryegrass, Lolium multiflorum); assay: Test A preemergence; type: in vivo; settings: Lolium multiflorum, pre-emergence, 240 h, 0 to 100 scale (0 no effect, 100 complete control), read-out: Plant response rating, Ryegrass, Italian; for pest or weed control at 500 g/ha: 500 g ai/ha, preemergence; for pest or weed control at 125 g/ha: Preemergence, 125 g ai/ha
Summary of the method: as §1

[5] = tested on: giant foxtail (Setaria faberii); assay: Test A preemergence; type: in vivo; settings: Setaria faberi, pre-emergence, 240 h, 0 to 100 scale (0 no effect, 100 complete control), read-out: Plant response rating, Foxtail, Giant; for pest or weed control at 500 g/ha: 500 g ai/ha, preemergence; for pest or weed control at 125 g/ha: Preemergence, 125 g ai/ha
Summary of the method: as §1

melting point [°C] | Structure (SMILES) | pest or weed control at 500 g/ha [1] [%] | pest or weed control at 125 g/ha [1] [%] | pest or weed control at 500 g/ha [2] [%] | pest or weed control at 125 g/ha [2] [%] | pest or weed control at 500 g/ha [3] [%] | pest or weed control at 125 g/ha [3] [%] | pest or weed control at 500 g/ha (Kochia (Kochia scoparia)) [%] | pest or weed control at 125 g/ha (Kochia (Kochia scoparia)) [%] | pest or weed control at 500 g/ha [4] [%] | pest or weed control at 125 g/ha [4] [%] | pest or weed control at 500 g/ha [5] [%] | pest or weed control at 125 g/ha [5] [%]
156 to 160 | Cc1c(F)cccc1NC(=O)[C@H]1C(=O)N(C)C[C@@H]1c1ccc(C(F)(F)F)cc1 [Compound 1386] | 90 | 80 | 100 | 90 | 80 | 60 | 90 | 80 | 70 | 50 | 90 | 90
154 to 158 | O=C1NC[C@H](c2nccc(C(F)(F)F)n2)[C@H]1C(=O)Nc1cccc(F)c1F [Compound 1392] | 0 | 0 | 60 | 0 | 0 | 0 | 0 | 0 | 0 | 0 | 60 | 0
